# From patent publication US20170143712A1, “Methods of Treating Cancers, Immune and Autoimmune Diseases, and Inflammatory Diseases Based on BTK Occupancy and BTK Resynthesis Rate” (Acerta Pharma B.V., priority 2014, published 2017)
# Experiments:
# [1] = tested on: BCR signaling through BTK; test: Anti-IgM induced CD86 and CD69 on splenocyte B cells of CIA mice; format: in vivo, mouse; conditions: splenocytes 3 hr after last dosing on day 14
# Method: (§1) FIG. 45 illustrates changes in a functional measure of BCR signalling through the CD86 marker. Mouse splenocytes were isolated from spleens from mice that were part of the mouse CIA study semi-therapeutic protocol, 3 hr after the last dosing on day 14 of the treatment and cryopreserved. After thawing, inhibition of anti-IgM-induced PD markers CD86 and CD69 on mouse splenocyte B cells were measured. Error bars represent the standard deviation for the 3 sets of splenocytes analyzed.
# as §1, with “FIG. 46” for “FIG. 45”, “the CD69” for “the CD86”
# Inhibition of the BCR signaling through BTK was evaluated by ex vivo stimulation of splenocytes using IgM and evaluation of CD86 and CD69 as functional responses of BCR stimulation.
# [2] = tested on: established type II collagen-induced arthritis (CIA) in DBA/1 mice; test: 14-day mouse established type II collagen-induced arthritis (CIA), PO QD (Example 10); format: in vivo; conditions: for arthritis scores measured daily vs vehicle controls / disease-induced body weight loss (percent change from baseline) vs vehicle controls: p<0.05 on the days printed; for AUC (All Paws) - Corrected for Initial Score / Change in Body Weight (g) / Histopathology Summed Score Knees / Histopathology Summed Score Paws / Histopathology Summed Score Six-Joints / Paw Score AUC (All Paws): mean(SE); for spleen weights compared to vehicle controls: all dose groups PO QD
# Method: Prior to dosing, the candidate anti-inflammatory agents were reconstituted either by vortexing or stirring. The candidate anti-inflammatory agents were administered to the DBA/1 mice daily (QD) by the oral (PO) route.
# Immunization with heterologous type II collagen (CII) induces arthritis in mice of the DBA/1 strain, which is genetically susceptible to this disease. To develop an experimental model of autoimmunity more adequate for the study of human rheumatoid arthritis (RA), male DBA/1 mice were injected intradermally (ID) with bovine type II collagen to induce arthritis as reported by Trentham et al (Trentham D E, Townes A S, Kang A H Autoimmunity to type II collagen: an experimental model of arthritis. J. Exper. Med. 1977, 146:857-868) and Bendele A (Bendele A, Animal models of rheumatoid arthritis. J. Musculoskelet. Neuronal Interact. 2001, 1(4):377-85). Male DBA/1 mice (n=114) that were 6-7 weeks old and weighed approximately 18-27 grams (mean 22 g) at enrollment (arthritis day 1) were obtained from Taconic Farms, Inc. The male DBA/1 mice were at least 6 weeks old at time of first immunization and were housed 3-5/cage in shoe-box polycarbonate cages with wire tops, wood chip bedding, and suspended food and water bottles. These animals were identified by a distinct number of ink marks at the base of the tail delineating animal number. After enrollment, all cages were labeled with protocol number, group number, and animal numbers.
# The male DBA/1 (n=10/group for arthritis) were anaesthetized with Isoflurane, shaved at the base of the tail, and injected intradermally with 150 μL of Freund's Complete Adjuvant (Difco, Detroit, Mich.) containing bovine type II collagen (BBP, batch #7) (1 mg/ml) at the base of the tail on day 0 and again on day 21. […] Randomization was done after swelling was obviously established in at least one paw (score of 1) and attempts were made to ensure approximately equal mean scores of 0.5-1 across groups at the time of enrollment. […] The male DBA/1 mice were terminated on arthritis day 14 (3 hours post-dose).
# Efficacy evaluation of the administered anti-inflammatory agents was based on animal body weights, clinical arthritis scores, arthritis scores expressed as area under the curve (AUC), and histopathology on fore paws, hind paws, and knees. Histopathology results were expressed as 4 paws, knees only, or 6 joints (knees included). Day 13 was used as the endpoint for analysis of body weight change since the male DBA/1 mice were fasted overnight prior to necropsy on day 14.
# MDA-MB-231 tumor cells = test: Osteolytic bone lesions after intratibial MDA-MB-231 tumor inoculation in nude rats; format: in vivo, rat; design: mean visual lysis score: scale not given here; mean left tibial density: unit not given here; conditions: zoledronate group (Group 2)
# Method: FIG. 40A, FIG. 40B, FIG. 40C, FIG. 40D, FIG. 40E, FIG. 40F, and FIG. 40G illustrate the bone density in hind limbs of nude rats (n=6 per group) implanted with intratibial MDA-MB231 tumor […] and treated for up to 41 days with vehicle control, zoledronate (active control) or varying doses of Formula (II). Oral gavage administration of Formula (II) was scheduled as 3 days of initial QD dosing, followed by 30 days of BID dosing at the following dose levels: 3/3, 30/30, and 180/90 mg/kg/day. An untreated group of rats, without tibial implants (n=3) represents bone density of concurrently obtained normal rat tibial images. Statistical significance was determined by two-way ANOVA-Dunnett: ns=not significant, *=P<0.05, **=P<0.01, ***=P<0.001, versus Group 1.
# Rats were inoculated with MDA-MB-231 tumor cells on Day 1, baseline radiographs were taken on Day 2, and treatment with Formula (II) began on Day 8. Radiographs were taken on Days 10, 17, 24, 31, 38, and 41. Anti-osteolytic activities were determined from differences in bone density and visual lysis scores between the drug-treated and vehicle-treated groups on each observation day, and also from changes in bone density and visual lysis scores in tumor-inoculated left tibias at baseline (Day 2) compared to Days 10, 17, 24,31, 38, and 41.
# Radiographs were blinded for both analyses. […] Visual osteolysis was not detected in any rat in the nave group. The 4% increase in mean bone density from baseline to study end presumably reflected normal growth in these rats.
# [3] = 5 mg/kg PO QD, prophylactic paws
# [4] = 5 mg/kg PO QD, prophylactic paws only
# [5] = 5 mg/kg PO QD, therapeutic paws only
SMILES,BCR-mediated signaling (anti-IgM induced CD86 and CD69) [1],"six-joint histopathology, reduction of summed scores vs vehicle controls ([2]; 5 mg/kg PO QD) [%]","Clinical arthritis scores AUC, reduction vs vehicle controls ([2]; 5 mg/kg PO QD, all paws) [%]","Clinical arthritis scores AUC, reduction when corrected for initial enrollment score ([2]; 5 mg/kg PO QD, all paws) [%]","arthritis scores measured daily vs vehicle controls ([2]; 5 mg/kg PO QD, all paws)",AUC (All Paws) - Corrected for Initial Score ([2]; 5 mg/kg PO QD),Change in Body Weight (g) ([2]; 5 mg/kg PO QD),Histopathology Summed Score Knees ([2]; 5 mg/kg PO QD),Histopathology Summed Score Paws ([2]; 5 mg/kg PO QD),Histopathology Summed Score Six-Joints ([2]; 5 mg/kg PO QD),Paw Score AUC (All Paws) ([2]; 5 mg/kg PO QD),disease-induced body weight loss (percent change from baseline) vs vehicle controls ([2]; 5 mg/kg PO QD),"daily arthritis scores vs vehicle controls [2, 3]","Clinical arthritis scores AUC, reduction vs vehicle controls [2, 4] [%]",spleen weights compared to vehicle controls [2],further results
"CC#CC(=O)N1CCOC[C@H]1c1nc(-c2ccc(C(=O)Nc3ccccn3)cc2)c2c(N)nccn12 [(R)-4-(8-amino-3-(4-(but-2-ynoyl)morpholin-3-yl)imidazo[1,5-a]pyrazin-1-yl)-N-(pyridin-2-yl)benzamide]",dose-responsive decreases in BCR-mediated signaling,75,74,90,significantly reduced toward normal,*3.43(2.22),−0.04(0.92) g,*2.65(0.79),4.24(1.07),*3.71(0.87),*10.58(2.95),significantly inhibited toward normal,significantly reduced toward normal,95,not significantly affected,–
"CC#CC(=O)N1CC[C@@H](n2c(=O)n(-c3ccc(Oc4ccccc4)cc3)c3c(N)ncnc32)C1 [Formula (XXI), 6-amino-9-[(3R)-1-(2-butynoyl)-3-pyrrolidinyl]-7-(4-phenoxyphenyl)-7,9-dihydro-8H-purin-8-one]",dose-responsive decreases in BCR-mediated signaling,85,86,104,significantly reduced toward normal,*−1.33(1.48),*0.89(0.71) g,*3.48(1.17),*1.46(0.47),*2.13(0.66),*5.83(1.53),significantly inhibited toward normal,significantly reduced toward normal,100,not significantly affected,"six-joint histopathology, reduction of summed scores vs vehicle controls ([2]; 1 mg/kg PO QD): 73%; total body weight loss from enrollment to study termination ([2]; 1 mg/kg PO QD): significantly inhibited; Clinical arthritis scores AUC, reduction vs vehicle controls ([2]; 1 mg/kg PO QD, all paws): 65%; Clinical arthritis scores AUC, reduction when corrected for initial enrollment score ([2]; 1 mg/kg PO QD, all paws): 79%; arthritis scores measured daily vs vehicle controls ([2]; 1 mg/kg PO QD, all paws): significantly reduced toward normal; AUC (All Paws) - Corrected for Initial Score ([2]; 1 mg/kg PO QD): 7.28(3.26); Change in Body Weight (g) ([2]; 1 mg/kg PO QD): *0.33(0.82) g; Histopathology Summed Score Knees ([2]; 1 mg/kg PO QD): *3.45(1.22); Histopathology Summed Score Paws ([2]; 1 mg/kg PO QD): *4.14(1.27); Histopathology Summed Score Six-Joints ([2]; 1 mg/kg PO QD): *3.91(1.13); Paw Score AUC (All Paws) ([2]; 1 mg/kg PO QD): *14.43(4.11); disease-induced body weight loss (percent change from baseline) vs vehicle controls ([2]; 1 mg/kg PO QD): significantly inhibited toward normal; daily arthritis scores vs vehicle controls ([2]; 1 mg/kg PO QD, prophylactic paws): significantly reduced toward normal; Clinical arthritis scores AUC, reduction vs vehicle controls ([2]; 1 mg/kg PO QD, prophylactic paws only): 99%; total body weight loss from enrollment to study termination ([2]; 5 mg/kg PO QD): significantly inhibited; daily arthritis scores vs vehicle controls ([2]; 5 mg/kg PO QD, therapeutic paws): significantly reduced toward normal; Clinical arthritis scores AUC, reduction vs vehicle controls [2, 5]: 66%; Clinical arthritis scores AUC, reduction when corrected for initial enrollment score [2, 5]: 113%"
"O=P(O)(O)C(O)(Cn1ccnc1)P(=O)(O)O [zoledronate, reference compound]",–,–,–,–,–,–,–,–,–,–,–,–,–,–,–,mean left tibial density (MDA-MB-231 tumor cells; Day 2 baseline): 200.0±1.6; increase in mean left tibial density (MDA-MB-231 tumor cells; Day 2 to Days 31 and 41): 4-6%; mean left tibial density (MDA-MB-231 tumor cells; Day 31): 207.8±1.6; mean left tibial density (MDA-MB-231 tumor cells; Day 41): 211.2±1.6; mean visual lysis score (MDA-MB-231 tumor cells; Days 31 and 41 each): 0.7
